Some test systems named below: BT-549 breast; DMS 273 small cell lung; SNB-78 CNS; LXFL 529 NSCLC; DMS 114 small cell lung; M19-MEL melanoma; T-47D breast; MDA-N.
Common to all, as to test: NCI tumour cell line growth inhibition, 48 h

Where “and” joins values, the source holds several entries; their conditions need not be identical. Equal entries are not always repeated.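 Briefly, cells in 96-well plates were exposed to five compound concentrations for 48 h, and endpoints were estimated by linear interpolation. GI50 is the concentration that inhibits growth by half. TGI is the concentration that stops growth completely.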 Bounds are passed on as bounds.

On to `O=C(OCc1ccccc1)N1CCN(/[N+]([O-])=N/Oc2ccc([N+](=O)[O-])cc2[N+](=O)[O-])CC1`, for which, in the test on BT-549 breast, the GI50 was 8.15 µM and the TGI amounted to 23.4 µM.

`CC1C[C@H](OC(N)=O)C(C)CC1=O` (some centres undefined): the TGI in the test with DMS 273 small cell lung, in the test on SNB-78 CNS, in the test with LXFL 529 NSCLC, in the test with DMS 114 small cell lung and with M19-MEL melanoma was more than 100 µM each time.

`CCCCCCCCCCCCCCCCCC1=NCCN1CS(=O)(=O)O`: in the test on T-47D breast, the GI50 was 20 µM and the TGI was found to be 43.1 µM. For the same compound, in the test with BT-549 breast, the GI50 is 19.5 µM and the TGI came out at 37.7 µM.

Regarding `CS(=O)CCCCCN=C=S` (centres undefined), in the test on T-47D breast, the GI50 was 2.32 µM and the TGI was determined as 7.56 µM. In the test on BT-549 breast, the GI50 is 3.07 µM and the TGI came out at 11.5 µM.

With `CC(=O)N1CC(Nc2ccc(OC(F)(F)F)cc2)=CC1=O`, in the test with BT-549 breast, the GI50 is 4.16 µM and the TGI is more than 100 µM.

Take `OCCCN=NNc1ccc(-c2nc3ccccc3[nH]2)cc1`: in the test on T-47D breast, the GI50 is 2.15 µM and the TGI was found to be 6.65 µM. Moreover, in the test on BT-549 breast, the GI50 is 34.4 µM and the TGI was determined as 96.8 µM.

On to `CSc1cnn(CCC#N)c(=O)n1`, for which the TGI with MDA-N, in the test with T-47D breast and in the test on BT-549 breast was more than 100 µM throughout.

Take `COc1ccc(NC(=O)n2nc(N)c3ccccc32)cc1OC`: in the test with T-47D breast, the GI50 was 33 µM and the TGI was more than 100 µM. Moreover, in the test on BT-549 breast, the GI50 is 25.9 µM and the TGI is more than 100 µM.

In the case of `COc1ccc(-c2ccc(/C=N/n3c(COc4ccccc4Cl)nn(CN4CCN(C)CC4)c3=S)o2)c([N+](=O)[O-])c1`, in the test on T-47D breast, the GI50 is 22.1 µM and the TGI is 77.1 µM. Besides, in the test on BT-549 breast, the GI50 is 17.2 µM and the TGI was found to be 43 µM.

In the case of `COc1cc2c(cc1OCCOS(C)(=O)=O)N=C[C@@H]1CCCN1C2=O`, the TGI with T-47D breast was more than 100 µM.

Take `Cc1ccc(C2NC(=S)NC3=C2CCOc2c3ccc3ccccc23)cc1` (centres undefined): in the test with T-47D breast, the GI50 was 35.7 µM and the TGI was more than 100 µM.

Take `NS(=O)(=O)c1cc2c(cc1Cl)NC(Cc1ccccc1)NS2(=O)=O` (centres undefined): the TGI in the test on MDA-N, in the test on T-47D breast and with BT-549 breast was more than 100 µM throughout.

For the compound `COc1cc2c(cc1OC)-c1cc3cc(OC)c(OC)cc3n1CC2`, the TGI with SNB-78 CNS, with LXFL 529 NSCLC, in the test with DMS 114 small cell lung and with M19-MEL melanoma was more than 100 µM in each case.

`CCN(CC)CCCNc1cccc2c(SCc3ccccc3)ccnc12`: in the test with T-47D breast, the GI50 is 1.93 µM and the TGI came to 4.29 µM. Moreover, in the test with BT-549 breast, the GI50 is 1.62 µM and the TGI amounted to 3.35 µM.

`C1CCN(CCC2CCCCN2)CC1` (centres undefined): the TGI in the test on MDA-N, with T-47D breast and with BT-549 breast was more than 100 µM in each case.

On to `CN1CCCNc2c(c(=O)c2=O)NCCCN(C)CCCNc2c(c(=O)c2=O)NCCCN(C)CCCNc2c(c(=O)c2=O)NCCCN(C)CCCNc2c(c(=O)c2=O)NCCCN(C)CCCNc2c(c(=O)c2=O)NCCCN(C)CCCNc2c(c(=O)c2=O)NCCCN(C)CCCNc2c(c(=O)c2=O)NCCC1`, for which, in the test on T-47D breast, the GI50 is 2.06 µM and the TGI was 7.74 µM. In addition, in the test with BT-549 breast, the GI50 is 5.69 µM and the TGI was determined as 19.8 µM.

As to `CC1/C=C/C=C/C=C/C=C/C=C/C=C/C=C/C(O[C@@H]2O[C@H](C)[C@H](O)[C@@H](O)[C@@H]2N)CC(O)C(C(=O)O)C(O)CC(=O)CC(O)CC(O)CC(O)CC(=O)CCCC(=O)CC(=O)OC1C(C)CC(C)C(O)CC(=O)c1ccc(N)cc1` (some centres undefined), the GI50 was 0.0722 µM and 0.318 µM with T-47D breast; 0.213 µM in the test with BT-549 breast. The TGI in the test on T-47D breast was 0.188 µM and 1.24 µM; in the test with BT-549 breast, 0.444 µM.

For the compound `CCCCCCCC/C=C/CCCCCCCCC1=NCCN1CCO`, in the test on T-47D breast, the GI50 was 2.96 µM and the TGI stood at 9.96 µM. Moreover, in the test with BT-549 breast, the GI50 is 11.3 µM and the TGI worked out at 40.2 µM.

Regarding `C=C(C)[C@@H]1CC[C@]2(C)[C@H](C(=O)C=C3[C@@H]4C[C@](C)(C(=O)N5CCN(C)CC5)CC[C@]4(C)CC[C@]32C)[C@@]1(C)CCC#N`, in the test on T-47D breast, the GI50 is 4.42 µM and the TGI came out at 13.4 µM. Besides, in the test with BT-549 breast, the GI50 is 6.67 µM and the TGI was determined as 13.4 µM.

As for `CCCCCC(O)C1C(=O)OC(C)C(O)/C=C/C=C/C=C/C=C\C=C(\C)C(O)CC(O)CC(O)CC(O)CC(O)CC(O)CC1O` (centres undefined), the GI50 in the test with MDA-N, with T-47D breast and with BT-549 breast was more than 100 µM throughout. Besides, the TGI with MDA-N, with T-47D breast and in the test with BT-549 breast was more than 100 µM throughout.

For the compound `C/C(=N\NC(=O)c1ccncc1)c1ccc2ccccc2c1O`, the TGI was more than 100 µM in the test on MDA-N, 14.5 µM in the test with T-47D breast and more than 100 µM in the test on BT-549 breast.

In the case of `CC(C)CCOc1ccc(-c2n[nH]c(C(F)(F)F)c2-c2cncc(C#N)c2)c(O)c1`, in the test with T-47D breast, the GI50 is 1.56 µM and the TGI is 6.54 µM. In the test with BT-549 breast, the GI50 is 2.57 µM and the TGI is 9.51 µM.

Consider `CC(=O)c1c(C(F)(F)F)n([O-])c2ccc(Cl)cc2[n+]1=O`, for which, in the test with T-47D breast, the GI50 is 2.31 µM and the TGI is more than 40.4 µM. In the test with BT-549 breast, the GI50 is 1.14 µM and the TGI was 2.65 µM.

With `CN(C)c1ccc(C(=C2C=CC(=[N+](C)C)C=C2)c2ccc(N(C)C)cc2)cc1` (tested in a mixture with another compound), the GI50 in the test with T-47D breast was 0.0389 µM; in the test with BT-549 breast it was 0.188 µM. The TGI in the test on T-47D breast is 0.655 µM; in the test with BT-549 breast it was 0.84 µM.

Turning to `CCSCC(N)C(=O)O` (centres undefined), the TGI in the test with MDA-N, with T-47D breast and with BT-549 breast was more than 100 µM each time.

On to `CC(=O)Nc1ccc(Sc2ccc([N+](=O)[O-])o2)cc1`, for which, in the test on BT-549 breast, the GI50 was 5.22 µM and the TGI was found to be 10.6 µM.

For `NC(CSC(c1ccccc1)(c1ccccc1)c1ccc(Cl)cc1)C(=O)O` (centres undefined), in the test with T-47D breast, the GI50 was 0.376 µM and the TGI was found to be 42 µM. In the test with BT-549 breast, the GI50 was 0.324 µM and the TGI came out at 15.8 µM.

With `COc1ccccc1-n1c(-c2cc(O)ccc2C)cn2c3c(=O)[nH]c(=O)n(C)c3nc12`, the figures for the GI50 in the test on T-47D breast and in the test on BT-549 breast were 42.4 µM and 20.5 µM, respectively. Besides, the TGI with T-47D breast and with BT-549 breast was more than 100 µM each time.
